Drawing on ChEMBL document CHEMBL2202954, “The effect of PLC-γ2 inhibitors on the growth of human tumour cells” (2012), this text covers GI50, TGI and CC50 for six compounds.

One may read the GI50 as the concentration that inhibits growth by half. As usually defined, the TGI is the concentration at which net growth stops.

What all share (assay type): functional
One experiment deals with MDA-MB-435. In words: Cytotoxicity against human MDA-MB-435 cells by SRB assay. Particulars: for CC50: read-out: LC50 (the source's name). In general terms: In SRB staining, fixed cells bind dye roughly in proportion to their protein.
The next experiment has as its system HL-60(TB). Nature of the experiment: Cytotoxicity against human HL-60(TB) cells by SRB assay.
A further experiment relates to MDA-MB-468. Nature of the experiment: Cytotoxicity against human MDA-MB-468 cells by SRB assay.
Another experiment concerns K562. Nature of the experiment: Cytotoxicity against human K562 cells by SRB assay.
The test system of a further experiment is RPMI-8226. In words: Cytotoxicity against human RPMI8226 cells by SRB assay.
For another experiment, the system named is CCRF-CEM. In words: Cytotoxicity against human CCRF-CEM cells by SRB assay.
In the next experiment the test system is MOLT-4. In words: Cytotoxicity against human MOLT4 cells by SRB assay.
Another experiment relates to SR. In words: Cytotoxicity against human SR cells by SRB assay.
A further experiment relates to SF-295. In words: Cytotoxicity against human SF295 cells by SRB assay.

Turning to `Nc1c(C(=O)Nc2ccccc2)sc2nc3c(cc12)C(=O)CCC3`, the GI50 was 89 nM with MDA-MB-435; 520 nM in the experiment with HL-60(TB); 150 nM in the experiment with MDA-MB-468; 520 nM with K562; 520 nM in the experiment with RPMI-8226; 520 nM in the experiment on CCRF-CEM. Besides, the GI50 with MOLT-4 worked out at 520 nM; in the experiment with SR, 520 nM; with SF-295 it was 372 nM. Besides, the TGI in the experiment with MDA-MB-435 is 297 nM; in the experiment on HL-60(TB) it was more than 100000 nM; in the experiment on MDA-MB-468, 583 nM; in the experiment with K562, more than 100000 nM; with RPMI-8226 it was more than 100000 nM; in the experiment with CCRF-CEM it was more than 100000 nM. In addition, the TGI in the experiment on MOLT-4 and with SR was more than 100000 nM each time.

As for `Cc1cc(C)c(NC(=O)c2sc3nc4c(cc3c2N)C(=O)CCC4)c(C)c1`, the GI50 in the experiment with MDA-MB-435 was determined as 267 nM; in the experiment on HL-60(TB), 3600 nM; in the experiment with MDA-MB-468, 596 nM; with K562 it was 3600 nM; with RPMI-8226 it was 3600 nM; with CCRF-CEM, 3600 nM. Besides, the figures for the GI50 in the experiment on MOLT-4, with SR and in the experiment with SF-295 were 3600 nM, 3600 nM and 399 nM, respectively. Besides, the TGI is 1160 nM in the experiment on MDA-MB-435; more than 100000 nM in the experiment with HL-60(TB); 3650 nM with MDA-MB-468; more than 100000 nM with K562; more than 100000 nM with RPMI-8226; more than 100000 nM with CCRF-CEM. Besides, the TGI in the experiment on MOLT-4 and in the experiment on SR was more than 100000 nM each time.

Turning to `Cc1ccccc1NC(=O)c1sc2nc3c(cc2c1N)C(=O)CCC3`, the GI50 in the experiment on MDA-MB-435 worked out at 331 nM; with HL-60(TB), 4300 nM; in the experiment with MDA-MB-468, 529 nM; with K562 it was 4300 nM; with RPMI-8226, 4300 nM; in the experiment on CCRF-CEM, 4300 nM. For the same compound, the GI50 with MOLT-4 came to 4300 nM; in the experiment on SR, 4300 nM; in the experiment with SF-295, 1330 nM. The TGI with MDA-MB-435 was 1980 nM; in the experiment with HL-60(TB), more than 100000 nM; in the experiment on MDA-MB-468, 6210 nM; in the experiment on K562, more than 100000 nM; with RPMI-8226, more than 100000 nM; in the experiment on CCRF-CEM it was more than 100000 nM. The TGI in the experiment with MOLT-4 and in the experiment with SR was more than 100000 nM throughout.

Turning to `Cc1ccc(Cl)cc1NC(=O)c1sc2nc3c(cc2c1N)C(=O)CCC3`, the GI50 with MDA-MB-435 is 1100 nM; with HL-60(TB) it was 3500 nM; in the experiment on MDA-MB-468, 2740 nM; in the experiment with K562, 3500 nM; in the experiment with RPMI-8226, 3500 nM; in the experiment on CCRF-CEM, 3500 nM. Further, the values for the GI50 in the experiment with MOLT-4, with SR and in the experiment with SF-295 were 3500 nM, 3500 nM and 2330 nM, respectively. Further, the total growth inhibition concentration (TGI) in the experiment with MDA-MB-435 was 5040 nM; in the experiment with HL-60(TB) it was more than 100000 nM; in the experiment with MDA-MB-468, 8760 nM; in the experiment with K562, more than 100000 nM; in the experiment on RPMI-8226, more than 100000 nM; with CCRF-CEM it was more than 100000 nM. Also, the values for the TGI with MOLT-4, with SR and in the experiment on SF-295 were more than 100000 nM, more than 100000 nM and 7440 nM, respectively.

On to `Nc1c(C(=O)Nc2cccc(Cl)c2)sc2nc3c(cc12)C(=O)CCC3`, for which the GI50 was determined as 45 nM in the experiment with MDA-MB-435; 200 nM in the experiment on HL-60(TB); 45 nM with MDA-MB-468; 200 nM in the experiment on K562; 200 nM with RPMI-8226; 200 nM with CCRF-CEM. Moreover, the values for the GI50 in the experiment with MOLT-4, with SR and in the experiment with SF-295 were 200 nM, 200 nM and 213 nM, respectively. For the same compound, the TGI in the experiment with MDA-MB-435 is 270 nM; in the experiment with HL-60(TB) it was more than 100000 nM; in the experiment with MDA-MB-468, 622 nM; in the experiment with K562 it was more than 100000 nM; in the experiment with RPMI-8226, more than 100000 nM; with CCRF-CEM it was more than 100000 nM. Moreover, the concentration for total growth inhibition (TGI) was more than 100000 nM in the experiment on MOLT-4, more than 100000 nM with SR and 781 nM in the experiment on SF-295. Further, the CC50 with MDA-MB-435 amounted to 900 nM.

Turning to `Nc1c(C(=O)Nc2ccccc2F)sc2nc3c(cc12)C(=O)CCC3`, the 50% growth inhibitory concentration (GI50) is 196 nM with MDA-MB-435; 1800 nM in the experiment on HL-60(TB); 238 nM with MDA-MB-468; 1800 nM in the experiment with K562; 1800 nM in the experiment on RPMI-8226; 1800 nM in the experiment with CCRF-CEM. Besides, the values for the concentration for 50% growth inhibition (GI50) in the experiment on MOLT-4, in the experiment on SR and in the experiment on SF-295 were 1800 nM, 1800 nM and 570 nM, respectively. Further, the TGI in the experiment with MDA-MB-435 is 567 nM; in the experiment with HL-60(TB) it was more than 100000 nM; in the experiment on MDA-MB-468, 952 nM; with K562 it was more than 100000 nM; in the experiment with RPMI-8226, more than 100000 nM; with CCRF-CEM, more than 100000 nM. Also, the TGI was more than 100000 nM with MOLT-4, more than 100000 nM with SR and 85700 nM in the experiment with SF-295. In addition, in the experiment with MDA-MB-435, the CC50 stood at 8000 nM.
